{
  "source": "paper PMC4077696",
  "about": "(PLoS Biology, 2014)",
  "key": {"[1]": {"molecular_target": "PfPMV (Plasmodium falciparum, UniProt Q8I6Z5)", "sequence (Q8I6Z5 34-590)": "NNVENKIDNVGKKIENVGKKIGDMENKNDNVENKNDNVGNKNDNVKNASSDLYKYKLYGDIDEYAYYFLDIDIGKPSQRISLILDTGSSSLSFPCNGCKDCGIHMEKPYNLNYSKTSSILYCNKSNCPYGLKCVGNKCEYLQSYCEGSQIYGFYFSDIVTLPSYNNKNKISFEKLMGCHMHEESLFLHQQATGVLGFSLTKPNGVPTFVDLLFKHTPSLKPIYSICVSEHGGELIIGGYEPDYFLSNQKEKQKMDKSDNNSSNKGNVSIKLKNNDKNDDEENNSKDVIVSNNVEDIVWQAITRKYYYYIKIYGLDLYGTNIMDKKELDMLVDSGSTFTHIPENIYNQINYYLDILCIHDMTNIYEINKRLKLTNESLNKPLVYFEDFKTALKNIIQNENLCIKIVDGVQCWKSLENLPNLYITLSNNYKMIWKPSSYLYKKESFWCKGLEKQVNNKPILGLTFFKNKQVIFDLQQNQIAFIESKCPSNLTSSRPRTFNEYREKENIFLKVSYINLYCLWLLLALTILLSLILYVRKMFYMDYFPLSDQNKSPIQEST", "test": "PEXEL cleavage assay with immunopurified PfPMVHA and fluorogenic KAHRP PEXEL peptide", "assay_type": "biochemical", "experimental": "To investigate PvPMVHA activity, we affinity purified it, as well as the PfPMVHA control, using anti-HA agarose, as previously described,[18]. […] The proteins were incubated with a fluorogenic peptide of nine amino acids that contained the PEXEL sequence from knob-associated histidine-rich protein (KAHRP), and efficient processing was observed by both enzymes (Figure 1E). Cleavage of KAHRP by PfPMVHA was previously shown to occur after Leu (RTL↓) by mass spectrometry, and this position was also confirmed for PvPMVHA (Figure S2B–E). […] In contrast, no processing was observed when the PEXEL Arg and Leu residues were mutated to Ala (ATAAQ), consistent with the substrate specificity of PfPMV (Figure 1E). To verify that processing was due to HA-tagged PMV rather than other co-precipitated proteases, we expressed in P. falciparum a mutant of PvPMVHA or PfPMVHA [13], where one or both catalytic Asp residues were mutated to Ala (see Figure 1A,B). Following affinity purification, the mutant enzymes were incubated with KAHRP PEXEL peptides, but no processing was observed (Figure 1E; blue, white), confirming that the PEXEL-dependent cleavage activity observed for each protease was attributable only to HA-tagged PMV.\nEach compound was incubated with PfPMVHA in the presence of KAHRP PEXEL peptides.\nPMV-agarose was prepared by adding α-HA-agarose (Sapphire Bioscience) to parasite lysates, prepared by sonication in 1% Triton X-100/PBS, for 1 h before extensive washing in same,[13]. PEXEL cleavage assays (20 µl total volume) consisted of 0.2 µl PMV-agarose in digest buffer (25 mM Tris, 25 mM MES, pH 6.4) with 1.5 µM FRET peptide substrate (DABCYL-[…]-E-EDANS, DABCYL-[…]-E-EDANS, LifeTein; DABCYL-[…]-E-EDANS, DABCYL-[…]-E-EDANS; Mimotopes) ± inhibitor. Samples were excited at 340 nm and fluorescence emission measured at 492 nm using an Envision fluorescence plate reader (Perkin-Elmer) heated to 37°C for 150 min. Samples were shaken between measurements. For determination of the peptide cleavage position by PvPMVHA, the fluorogenic peptide (DABCYL-[…]-E-EDANS), representing the wild-type KAHRP PEXEL sequence, was incubated with and without PvPMVHA at 37°C for 48 h. Products of the incubation were detected by a molecular formula algorithm using an Agilent 6200 TOF/6500 series mass spectrometer."}, "[2]": {"tested_on": "Human Foreskin Fibroblasts (HFF)", "test": "Toxicity against Human Foreskin Fibroblasts", "assay_type": "cell-based", "conditions": "Fibroblast"}, "[3]": {"molecular_target": "PMV in P. falciparum–infected erythrocytes (Plasmodium falciparum, UniProt Q8I6Z5)", "sequence (Q8I6Z5 whole entry)": "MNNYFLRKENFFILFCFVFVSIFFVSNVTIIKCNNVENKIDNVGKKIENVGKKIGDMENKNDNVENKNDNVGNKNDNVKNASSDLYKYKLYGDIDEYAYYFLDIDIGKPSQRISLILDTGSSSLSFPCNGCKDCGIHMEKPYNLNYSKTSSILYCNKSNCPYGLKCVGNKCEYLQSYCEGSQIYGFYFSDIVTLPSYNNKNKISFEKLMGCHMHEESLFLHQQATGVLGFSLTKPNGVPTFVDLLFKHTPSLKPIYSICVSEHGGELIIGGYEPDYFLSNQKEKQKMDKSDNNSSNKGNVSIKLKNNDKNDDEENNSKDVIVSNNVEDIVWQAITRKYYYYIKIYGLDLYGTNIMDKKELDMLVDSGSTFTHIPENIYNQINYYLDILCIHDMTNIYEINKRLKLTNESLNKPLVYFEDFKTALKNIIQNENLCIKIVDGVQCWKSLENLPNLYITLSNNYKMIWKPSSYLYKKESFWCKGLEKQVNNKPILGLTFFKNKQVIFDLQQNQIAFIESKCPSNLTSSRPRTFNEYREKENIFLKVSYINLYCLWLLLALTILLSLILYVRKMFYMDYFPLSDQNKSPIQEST", "test": "PEXEL processing of GFP reporters in parasites by immunoblot", "assay_type": "cell-based", "conditions": "for PEXEL processing of KAHRP-GFP in parasites, in words / PEXEL processing of PfEMP3-GFP in parasites, in words: 5 h treatment, immunoblot; for PEXEL processing of KAHRP-GFP in parasites, in words: 20 and 50 µM; for PEXEL processing of PfEMP3-GFP in parasites, in words: up to 50 µM", "experimental": "To assess whether 916 could inhibit PMV in P. falciparum–infected erythrocytes, parasites expressing the PEXEL protein P. falciparum erythrocyte membrane protein 3 (PfEMP3) fused to green fluorescent protein (GFP) were treated with increasing concentrations of inhibitor, and PEXEL processing was evaluated by immunoblot. […] A GFP-only band, representing degraded chimera in the food vacuole, was also observed at ∼26 kDa (Figure 3A).\n(§1) Trophozoites (30–34 h) expressing PfEMP3-GFP, KAHRP-GFP, or SERA5s-GFP were magnet-purified (Miltenyi Biotech), incubated with inhibitors in 400 µl total volume at 37°C for 1–5 h, treated with 0.09% saponin containing inhibitor, and washed pellets were solubilized in Laemmli's buffer, boiled for 3 min, and frozen at −20°C. Proteins were separated by SDS-PAGE, transferred to nitrocellulose and blocked in 10% skim milk/PBS-T, and probed with rat α-HA (Roche 3F10; 1∶1,000), mouse α-GFP (Roche; 1∶1,000), rabbit α-Aldolase (1∶1,000), rabbit α-HSP70 (1∶4,000), rabbit α-PfPMV (1∶1,000), or rabbit α-Hyp8 (1∶500) primary antibodies followed by horseradish peroxidase-conjugated secondary antibodies (Silenius) and detected by enhanced chemiluminescence (Amersham)."}, "[4]": {"tested_on": "signal peptidase", "test": "Signal peptide cleavage of SERA5s-GFP in parasites by immunoblot", "assay_type": "cell-based, Plasmodium falciparum", "conditions": "for Signal peptide cleavage of SERA5s-GFP, in words: 20 µM for 5 h", "experimental": "This protein contains a signal peptide but lacks a PEXEL and is efficiently secreted to the parasitophorous vacuole (Figure S3B).\nas §1"}, "[5]": {"tested_on": "P. falciparum protein translation", "test": "Global protein synthesis by radiolabeling parasite proteins after drug treatment", "assay_type": "cell-based, Plasmodium falciparum", "conditions": "for Global protein synthesis after 23 h treatment of rings: 15 µM or 50>15 µM, BFA 5 µg/ml; for Global protein synthesis after 5 h treatment of trophozoites: 15 or 50 µM, BFA 10 µg/ml, 15 min labeling", "experimental": "To gain further insight into the effects of 916, 024, and 025 on parasites, we assessed global protein synthesis following drug treatment by radiolabeling parasite proteins. Treatment of trophozoites with inhibitor for 5 h prior to radiolabeling had no detectable effect on translation, even at 50 µM concentrations (Figure S4A), indicating the compounds are not direct inhibitors of the translation machinery. We next assessed protein synthesis following 23 h of drug treatment of ring stage parasites (aged 1–3 h old at the initiation of treatment). […] Indeed, Giemsa smears following treatment identified a small proportion of pyknotic parasites in the population (results not shown). […] It is possible that PMV inhibition by 916 treatment has a similar but weaker effect to BFA, in that it causes the accumulation of uncleaved PEXEL precursors in the ER, perturbing ER transport, and that this negatively affects translation by an ER stress response. An alternative possibility is that translation was decreased slightly as a result of parasites dying from 916-mediated impairment of erythrocyte remodeling. Either way, the profile for 916 was different to that seen for 024 and 025, even at 50 µM, indicating the latter analogs likely kill parasites via a different mechanism to 916.\nWhole parasite proteins were radiolabeled by culturing magnet-purified trophozoites (wild-type 3D7 or expressing PfEMP3-GFP) in Met/Cys-free medium for 30 min at 37°C before addition of 800 µCi/ml ^35S-Met/Cys (Perkin/Elmer) to the medium for the indicated times. Pellets were snap frozen in ethanol/dry ice bath and stored at −80°C. For radiolabeling in the presence of PMV inhibitor, parasites were treated with 20 µM WEHI-916 for 5 h before labeling commenced. For pulse-chases, proteins were radiolabeled in the presence or absence of inhibitor, as above, before further culture in radiolabel-free, inhibitor-free complete medium for the indicated times at 37°C before snap freezing. Frozen samples were either solubilized in Laemmli's buffer (Figure S4) or solubilized in 1% Triton X-100/PBS with protease inhibitor cocktail (Roche) and PfEMP3-GFP species immunopurified with α-GFP agarose (MBL) at 4°C for 2 h (Figures 3 and S3), and proteins were resolved by SDS-PAGE, visualized by autoradiography (7-d exposures), and quantified using a GS-800 Calibrated Densitometer (Bio-Rad)."}},
  "note": "“Also recorded” adds a separate entry of the source. Counter-ions that a name gives are not always drawn.",
  "data": [
    {"compound": "CC[C@H](C)[C@H](NC(=O)[C@@H](NC(=O)[C@H](CCCNC(=N)N)NS(=O)(=O)Cc1ccccc1)C(C)C)[C@@H](O)CC(=O)NCCc1ccccc1", "note": "[compound 025, PhCH2SO2Arg-Val-AHMHpA-NH(CH2)2Ph . TFA]", "values": [
      {"measurement": "IC50", "setting": "[1]; IC50 PfPMV, PfPMVHA", "value": 1110, "unit": "nM"},
      {"measurement": "IC50", "setting": "[2]", "value": "> 100000", "unit": "nM"},
      {"measurement": "PEXEL processing of KAHRP-GFP in parasites, in words", "setting": "[3]", "value": "no effect"},
      {"measurement": "PEXEL processing of PfEMP3-GFP in parasites, in words", "setting": "[3]", "value": "no effect"},
      {"measurement": "Signal peptide cleavage of SERA5s-GFP, in words", "setting": "[4]", "value": "no defect"},
      {"measurement": "Effect on PMV or signal peptidase activity in parasites, in words", "setting": "[4]; concentrations up to 50 µM", "value": "no affect"},
      {"measurement": "Global protein synthesis after 23 h treatment of rings", "setting": "[5]", "value": "no defect in global protein synthesis"},
      {"measurement": "Global protein synthesis after 5 h treatment of trophozoites", "setting": "[5]", "value": "no defect in global protein synthesis"}
    ]},
    {"compound": "CC(C)C[C@H](NC(=O)[C@@H](NC(=O)[C@H](CCCNC(=N)N)NS(=O)(=O)Cc1ccccc1)C(C)C)[C@@H](O)CC(=O)NCCc1ccccc1", "note": "[compound 916, PhCH2SO2-Arg(NH2)-Val-Sta-NH(CH2)2Ph .TFA]", "values": [
      {"measurement": "IC50", "setting": "[1]; IC50 PfPMVHA, PEXEL cleavage", "value": 20, "unit": "nM"},
      {"measurement": "IC50", "setting": "[2]", "value": "> 100000", "unit": "nM"},
      {"measurement": "Inhibition of PfEMP3-GFP cleavage after 2 to 5 h of treatment", "setting": "[3]; 2 to 5 h", "value": "uncleaved PfEMP3-GFP increased"},
      {"measurement": "Inhibition of PfEMP3-GFP cleavage after 1 h of treatment", "setting": "[3]; 1 h", "value": "No effect"},
      {"measurement": "PEXEL processing of KAHRP-GFP in parasites, in words", "setting": "[3]", "value": "accumulation of both uncleaved (black arrow) and signal peptide-cleaved (red arrow) protein"},
      {"measurement": "PEXEL processing of PfEMP3-GFP in parasites, in words", "setting": "[3]", "value": "dose-dependent increase in unprocessed PfEMP3-GFP"},
      {"measurement": "inhibition at 20 µM", "setting": "[3]; read-out: Rescue of PfEMP3-GFP cleavage inhibition in inhibitor-free medium", "value": "~50", "unit": "%"},
      {"measurement": "Signal peptide cleavage of SERA5s-GFP, in words", "setting": "[4]", "value": "no defect; also recorded: did not impair processing of the signal peptide"},
      {"measurement": "Global protein synthesis after 23 h treatment of rings", "setting": "[5]", "value": "minor reduction in translation; also recorded: slight reduction in translation"},
      {"measurement": "Global protein synthesis after 5 h treatment of trophozoites", "setting": "[5]", "value": "no defect in global protein synthesis"}
    ]}
  ]
}
